According to the OPERA property sets (Mansouri et al. 2018):

| logP | SMILES |
| --- | --- |
| 1.63 | c1ccc2c(c1)OCCOCCOCCOCCOCCOCCOc1ccccc1OCCO2 |
| 1.45 | c1ccc2c(c1)OCCOCCOCCOCCOCCOCCOc1ccccc1OCCOCCOCCO2 |
| 2.11 | c1ccc2c(c1)OCCOCCOCCOc1ccccc1OCCOCCOCCO2 |
| 0.58 | c1ccc2c(c1)OCCOCCOCCOCCOCCO2 |
| 2.2 | c1ccc2c(c1)OCCOCCOc1ccccc1OCCOCCO2 |
| 1.82 | c1ccc2c(c1)OCCOCCOCCOCCOCCOCCOCCOc1ccccc1OCCO2 |
| 1.8 | c1ccc2c(c1)OCCOCCOCCOCCOc1ccccc1OCCOCCOCCOCCO2 |
| 0.57 | c1ccc2c(c1)OCCOCCOCCOCCOCCOCCO2 |

Second part, the compound before the results:

| SMILES | logP |
| --- | --- |
| c1ccc2c(c1)OCCOCCOCCOCCOCCOCCOCCOc1ccccc1OCCOCCOCCOCCOCCOCCOCCO2 | 0.52 |
| c1ccc2c(c1)OCCOCCOCCOCCOCCOCCOCCO2 | 0.45 |
| COCCOCCOCCOc1ccccc1OCCOCCOCCOC | 0.38 |
| c1ccc2c(c1)OCCOCCOCCOCCOCCOCCOCCOCCOCCO2 | 0.03 |
| COCCOCCOc1ccccc1OCCOCCOC | 0.76 |
| c1ccc2c(c1)OCCOCCOCCOCCOCCOCCOCCOCCOCCOCCO2 | -0.09 |
| COCCOCCOc1ccc(OCCOCCOC)cc1 | 0.76 |
| c1ccc2c(c1)OCCOCCOCCOCCO2 | 0.91 |
| COCCOCCOc1cccc(OCCOCCOC)c1 | 0.86 |
